From US20260364098A1, “HETEROARYL COMPOUNDS AS ENDOCANNABINOID SYSTEM MODULATORS AND USES THEREOF” (Northeastern University, priority 2023, published 2026)
Where two headings read alike, the source gives them in different places.

Experiments:
[1] = target: T1, hCB1 receptors (Homo sapiens, UniProt P21554); experiment: CB1 cAMP assay (inhibition of forskolin-stimulated cAMP accumulation); type: cell-based; details: for EC50: EC50 of 2-AG + Compound (1 μM), 2-AG in presence of 1 μM compound, forskolin 2 μM, HEK293 and/or CHO hCB1
T1 construct: expressed in transfected cells
Procedure: CB1 cAMP assays. Compounds are evaluated for their ability to modulate the actions of orthosteric ligands at CB1 receptor sites. HEK293 and/or CHO cells stably expressing hCB1 receptors were used for the studies. The CAMP assay was carried out using Perkin Elmer's Lance Ultra cAMP kit following the protocol as described in J Biomol Screen 1999, 4, (6), 303-308. The assays are carried out in a 384-well format using 1000-1500 cells/well. The cells are harvested with non-enzymatic cell dissociation reagent Versene, washed once with Hanks' Balanced Salt Solution (HBSS), and resuspended in the stimulation buffer. […] After 30 minutes of stimulation at room temperature, the Eu-CAMP tracer working solution (5 μL) and Ulight-anti-cAMP working solution (5 μL) are added to the plate and incubated at room temperature for 60 minutes. The data are collected via PerkinElmer Envision plate reader. The EC50 values are determined by nonlinear regression analysis using GraphPad Prism software (FIGS. 2A-2H).

[2] = target: T2, human MGL (hMGL) (Homo sapiens, UniProt Q99685); experiment: Fluorescent assay for human MGL inhibition; type: biochemical; details: for hMGL inhibition: at concentrations up to 10 μM, known commercial ligands
T2 construct: made in house; host or cells: E. coli (lysate)
T2 sequence (Q99685 1-303): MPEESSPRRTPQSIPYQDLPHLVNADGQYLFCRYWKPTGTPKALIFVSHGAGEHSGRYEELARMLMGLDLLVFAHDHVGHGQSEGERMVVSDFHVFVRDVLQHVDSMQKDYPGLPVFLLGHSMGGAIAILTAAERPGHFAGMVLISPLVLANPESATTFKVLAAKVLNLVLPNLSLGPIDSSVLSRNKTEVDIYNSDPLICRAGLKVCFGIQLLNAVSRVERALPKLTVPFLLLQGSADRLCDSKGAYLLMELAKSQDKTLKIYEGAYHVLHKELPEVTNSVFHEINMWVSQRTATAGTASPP
Procedure: Fluorescent assay protocol for human MGL. Compound inhibition of hMGL activity was assessed by a fluorometric assay. The assay was carried out in a 96-well plate format and hMGL was monitored by the hydrolysis of the substrate […] or the substrate valeroyl-7-hydroxy-6-methoxy-4-methylcoumarin ester (VHMMCE) to form the fluorescent product, coumarin. Briefly, various concentrations of each compound were preincubated with hMGL (175 ng of total protein in E. coli lysate containing hMGL) for 15 minutes at room temperature. Upon the addition of the substrate, the reaction was incubated at […] for 120 minutes; fluorescence readings were taken every 15 minutes at 360 nm/460 nm (2excitation/λmission) using a Synergy HT Plate Reader (Bio-Tek, Winooski, Vt.). Under the incubation conditions, negligible substrate hydrolysis was observed. External standards were used to convert relative fluorescence units to the amount of 4-methylcoumarin formed. hMGL assays were performed in triplicate for each inhibitor concentration, and IC50 values were determined using Prizm software (FIGS. 1A-1G).

[3] = Kinetic aqueous solubility by laser-based nephelometry; type: physicochemical; details: PBS buffer pH 7.4, 120 min, room temperature; relative to ZCZ011
Procedure: Aqueous solubility assays. The kinetic aqueous solubility of the compounds is determined using laser-based nephelometry. Linear serial dilutions of each compound are prepared in PBS buffer (pH=7.4) from DMSO stock solution (10 mM) in a 384-well plate. The compound solutions are mixed and incubated for 120 minutes at room temperature, followed by approximating the precipitation points for each compound using light scattering (laser-based BMG Labtech NEPHELOstar PLUS microplate nephelometer). In some aspects, the final solutions may contain 0 mM, 55 mM, 135 mM, or 500 mM of mannitol.

[4] = target: human CB1 (hCB1) (Homo sapiens, UniProt P21554); experiment: Competition binding assay, [3H]CP55,940 displacement, hCB1 HEK293 membranes; details: up to 100 nM; [3H]CP55,940 0.7 nM; 37 °C, 60 min
Procedure: Cell membrane preparation. Fresh or frozen HEK293 cell pellets (2×10^8 cells expressing human CB1 (hCB1) or rat CB1 (rCB1)) were resuspended in 5 ml of TME [25 mM Tris, 5 mM MgCl2, 1 mM EDTA pH 7.4] supplemented with 0.5% protease inhibitor cocktail (Sigma, St Louis, MO, USA). Cells were lysed under nitrogen cavitation for 30 min at 1000 psi on ice, centrifuged at 1000 g for 10 min, and the supernatant was collected. The pellet was washed three times with 10 ml of TME containing protease inhibitors and the combined supernatant was centrifuged at 100,000 g for 45 min at 4 °C. The resultant membrane pellet was used immediately or stored at −80 °C. Protein concentration for the resulting membrane fraction was obtained using Bradford Assay.
Competition Binding Assay. Competition binding assays were performed in a 96-well format. Assays were carried out using [3H] CP55,940 and Tris binding buffer (50 mM Tris-HCl, 50 mM Tris-base, 0.1% BSA, pH 7.4), up to a total assay volume of 500 μL. The concentration of [^3H]CP55,940 used in our displacement assays was 0.7 nM. […] Radioactivity was quantified by liquid scintillation spectrometry. […] Ki values were determined by fitting the data to non-linear regression curve using Graph Pad Prism software.

[5] = hMGL in E. coli lysate, 15 min preincubation, AHMMCE or VHMMCE substrate, read-out: MGL inhibition IC50

T1 sequence (P21554 whole entry): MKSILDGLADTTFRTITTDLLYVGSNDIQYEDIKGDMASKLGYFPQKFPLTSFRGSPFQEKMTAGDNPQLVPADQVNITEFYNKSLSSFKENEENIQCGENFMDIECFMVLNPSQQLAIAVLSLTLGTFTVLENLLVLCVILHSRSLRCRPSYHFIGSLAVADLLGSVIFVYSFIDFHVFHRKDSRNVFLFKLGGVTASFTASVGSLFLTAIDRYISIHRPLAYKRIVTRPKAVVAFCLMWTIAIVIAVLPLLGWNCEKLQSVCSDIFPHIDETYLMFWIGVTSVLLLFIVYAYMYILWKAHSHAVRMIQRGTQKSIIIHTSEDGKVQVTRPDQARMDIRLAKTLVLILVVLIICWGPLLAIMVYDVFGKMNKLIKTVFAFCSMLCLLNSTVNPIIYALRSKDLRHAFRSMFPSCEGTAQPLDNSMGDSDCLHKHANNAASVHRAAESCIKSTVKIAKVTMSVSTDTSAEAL
Sequence of human CB1 (hCB1) (P21554 whole entry): as above

Row | SMILES | EC50 [1] [nM] | IC50 [2, 5] [nM] | other results
1 | O=[N+]([O-])CC(c1ccccc1)c1c(-c2ccc(B(O)O)cc2)[nH]c2ccccc12 (stereo not drawn) [Compound 5, (4-(3-(2-nitro-1-phenylethyl)-1H-indol-2-yl)phenyl)boronic acid] | 57 | – | –
2 | O=[N+]([O-])CC(c1ccc(N=C=S)cc1)c1c(-c2ccccc2)[nH]c2ccccc12 (stereo not drawn) [Compound 10, 3-(1-(4-isothiocyanatophenyl)-2-nitroethyl)-2-phenyl-1H-indole] | – | 1160 | –
3 | O=[N+]([O-])C[C@H](c1ccc(B(O)O)cc1)c1c(-c2ccccc2)[nH]c2ccccc12 (single isomer, unassigned) [Compound 2] | 51.3 | 271 | –
4 | O=[N+]([O-])CC(c1ccccc1)c1c(-c2ccccc2)[nH]c2cc(B(O)O)ccc12 (stereo not drawn) [Compound 8, (3-(2-nitro-1-phenylethyl)-2-phenyl-1H-indol-6-yl)boronic acid] | – | 46.8 | –
5 | O=[N+]([O-])CC(c1ccc(B(O)O)cc1)c1c(-c2ccccc2)[nH]c2ccccc12 (stereo not drawn) [Compound 1, (4-(2-nitro-1-(2-phenyl-1H-indol-3-yl)ethyl)phenyl)boronic acid] | 102 | 63.5 | aqueous solubility compared to ZCZ011 [3]: > 100 fold; competition with CP-55,940 [4]: do not compete with CP-55,940
6 | O=[N+]([O-])CC(c1ccccc1)c1c(-c2ccc(S(=O)(=O)F)cc2)[nH]c2ccccc12 (stereo not drawn) [Compound 9, 4-(3-(2-nitro-1-phenylethyl)-1H-indol-2-yl)benzenesulfonyl fluoride] | – | – | IC50 [2]: 32.3 nM
7 | Cc1ccc2c(C(C[N+](=O)[O-])c3cccs3)c(-c3ccccc3)[nH]c2c1 (stereo not drawn) [ZCZ011, 6-methyl-3-(2-nitro-1-(thiophen-2-yl)ethyl)-2-phenyl-1H-indole, reference compound] | – | – | hMGL inhibition [2]: did not show any hMGL inhibition at concentrations up to 10 μM
8 | O=[N+]([O-])CC(c1ccc(B(O)O)cc1)c1c(-c2ccc(N=C=S)cc2)[nH]c2ccccc12 (stereo not drawn) [Compound 6, (4-(1-(2-(4-isothiocyanatophenyl)-1H-indol-3-yl)-2-nitroethyl)phenyl)boronic acid] | 57.2 | – | –
9 | O=[N+]([O-])CC(c1cccc(B(O)O)c1)c1c(-c2ccccc2)[nH]c2ccccc12 (stereo not drawn) [Compound 4, (3-(2-nitro-1-(2-phenyl-1H-indol-3-yl)ethyl)phenyl)boronic acid] | 40.8 | 979 | competition with CP-55,940 [4]: do not compete with CP-55,940
10 | O=[N+]([O-])CC(c1ccccc1)c1c(-c2ccccc2)[nH]c2ccccc12 (stereo not drawn) [GAT211, 3-(2-nitro-1-phenylethyl)-2-phenyl-1H-indole, reference compound] | – | – | hMGL inhibition [2]: did not show any hMGL inhibition at concentrations up to 10 μM
11 | O=[N+]([O-])C[C@@H](c1ccc(B(O)O)cc1)c1c(-c2ccccc2)[nH]c2ccccc12 (single isomer, unassigned) [Compound 3] | 37.5 | 58.8 | allosteric modulation of 2-AG and CP-55,940 at CB1 ([1]; in words): positive allosteric modulator of both 2-AG and CP-55,940; increase of potency of 2-AG at CB1 ([1]; orthosteric ligand 2-AG, positive allosteric modulator): ~ 2 fold; increase of potency of CP-55,940 at CB1 ([1]; orthosteric ligand CP-55,940, positive allosteric modulator): ~ 2 fold
